Consider 2 substances from patent publication US20100104552A1, “ANTIBIOTIC SYNERGISM” (priority 2008, published 2010).

Format in all cases: cell-based
The test system of assay [1] is bacterial membrane. The assay is described as follows: Trans-membrane potential of exposed bacteria. Conditions: bacteria exposed to the defensin.
The test system of assay [2] is vancomycin-resistant Staphylococcus aureus (VRSA). The assay is described as follows: Cross-resistance with vancomycin resistance.
The next assay deals with bacterial cells. The assay is described as follows: Traditional incorporation studies.
Assay [3] relates to bacterial membrane. The assay is described as follows: K+-efflux of exposed bacteria. Conditions: bacteria exposed to the defensin.

In the case of “GFGCNGPWNEDDLRCHNHCKSIKGYKGGYCAKGGFVCKCY [Defensin2114]”, the trans-membrane potential result with bacterial membrane [1] is reported as “remained intact”. In assay [2], the cross-resistance entry is listed as “No cross-resistance”. Besides, the “incorporation of cell wall precursors” value with bacterial cells is on record as “severely affected”. For the same substance, the “K+-efflux” value with bacterial membrane [3] is “No K^+-efflux could be detected”.

For Plectasin, the trans-membrane potential result in the assay with bacterial membrane [1] is “remained intact”. Moreover, the cross-resistance entry in assay [2] is listed as “No cross-resistance”. In addition, the “incorporation of cell wall precursors” value in the assay with bacterial cells is recorded as “severely affected”. Also, in the assay on bacterial membrane [3], the “K+-efflux” value was “No K^+-efflux could be detected”.
